Experimental data from US11034692B1 (Genentech, Inc., priority 2017, dated 2021).

target: HPK1; test: HPK1 Lantha Binding Assay ("Lanth"); settings: Table B1-1, read-out: HPK1 Ki (μM) (Lanth)
Summary of the method: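 Compounds in an 11-point 5-fold series were preincubated 1 h at 23 C with 2 nM kinase plus 2 nM Eu-anti-GST antibody. Then 15 nM Tracer222 was added for another hour, and time-resolved FRET was read at 665/615 nm. Ki values come from a Morrison tight-binding model that uses the tracer Kd.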

Ki | Compound
5.28 nM | COC(C)(C)[C@@H]1C[C@H]1C(=O)Nc1cc2cc(-c3cnccc3C)nc(N)c2cn1 [Compound 239, (1R,2R)—N-[8-amino-6-(4-methylpyridin-3-yl)-2,7-naphthyridin-3-yl]-2-(2-methoxypropan-2-yl)cyclopropane-1-carboxamide]
47 nM | COC(C)(C)[C@H]1C[C@@H]1C(=O)Nc1cc2cc(-c3cnccc3C)nc(N)c2cn1 [Compound 240, (1S,2S)—N-[8-amino-6-(4-methylpyridin-3-yl)-2,7-naphthyridin-3-yl]-2-(2-methoxypropan-2-yl)cyclopropane-1-carboxamide]
2.19 nM | Cc1ccncc1-c1cc2cc(NC(=O)[C@@H]3C[C@H]3C(C)(C)O)ncc2c(N)n1 [Compound 241, (1R,2R)—N-[8-amino-6-(4-methylpyridin-3-yl)-2,7-naphthyridin-3-yl]-2-(2-hydroxypropan-2-yl)cyclopropane-1-carboxamide]
31.2 nM | Cc1ccncc1-c1cc2cc(NC(=O)[C@H]3C[C@@H]3C(C)(C)O)ncc2c(N)n1 [Compound 242, (1S,2S)—N-[8-amino-6-(4-methylpyridin-3-yl)-2,7-naphthyridin-3-yl]-2-(2-hydroxypropan-2-yl)cyclopropane-1-carboxamide]
1.37 nM | N#C[C@@H]1C[C@H]1C(=O)Nc1cc2cc(-c3cnccc3-c3cc[nH]n3)nc(N)c2cn1 [Compound 243, (1R,2R)—N-(6-(4-(1H-pyrazol-3-yl)pyridin-3-yl)-8-amino-2,7-naphthyridin-3-yl)-2-cyanocyclopropanecarboxamide]
3.56 nM | N#C[C@H]1C[C@@H]1C(=O)Nc1cc2cc(-c3cnccc3-c3cc[nH]n3)nc(N)c2cn1 [Compound 244, (1S,2S)—N-(6-(4-(1H-pyrazol-3-yl)pyridin-3-yl)-8-amino-2,7-naphthyridin-3-yl)-2-cyanocyclopropanecarboxamide]
5.42 nM | Nc1nc(-c2cnccc2CCO)cc2cc(NC(=O)[C@H]3C[C@@H]3c3cnsc3)ncc12 [Compound 245, (1S,2S)—N-(8-amino-6-(4-(2-hydroxyethyl)pyridin-3-yl)-2,7-naphthyridin-3-yl)-2-(isothiazol-4-yl)cyclopropanecarboxamide]
0.0455 nM | Nc1nc(-c2cnccc2CCO)cc2cc(NC(=O)[C@@H]3C[C@H]3c3cnsc3)ncc12 [Compound 246, (1R,2R)—N-(8-amino-6-(4-(2-hydroxyethyl)pyridin-3-yl)-2,7-naphthyridin-3-yl)-2-(isothiazol-4-yl)cyclopropanecarboxamide]
0.0219 nM | Cc1c(N)cncc1-c1cc2cc(NC(=O)[C@H]3C[C@@H]3CC#N)ncc2c(N)n1 [Compound 247, (1S,2R)—N-[8-amino-6-(5-amino-4-methylpyridin-3-yl)-2,7-naphthyridin-3-yl]-2-(cyanomethyl)cyclopropane-1-carboxamide]
1.03 nM | Cc1c(N)cncc1-c1cc2cc(NC(=O)[C@@H]3C[C@H]3CC#N)ncc2c(N)n1 [Compound 248, (1R,2S)—N-[8-amino-6-(5-amino-4-methylpyridin-3-yl)-2,7-naphthyridin-3-yl]-2-(cyanomethyl)cyclopropane-1-carboxamide]
0.433 nM | Cc1ccncc1-c1cc2cc(Nc3cnn([C@@H]4CCN(C)C4=O)c3)ncc2c(N)n1 [Compound 249, (3R)-3-(4-[[8-amino-6-(4-methylpyridin-3-yl)-2,7-naphthyridin-3-yl]amino]-1H-pyrazol-1-yl)-1-methylpyrrolidin-2-one]
0.184 nM | Cc1ccncc1-c1cc2cc(Nc3cnn([C@H]4CCN(C)C4=O)c3)ncc2c(N)n1 [Compound 250, (3S)-3-(4-[[8-amino-6-(4-methylpyridin-3-yl)-2,7-naphthyridin-3-yl]amino]-1H-pyrazol-1-yl)-1-methylpyrrolidin-2-one]
0.512 nM | Cc1ccncc1-c1cc2cc(Nc3cnn([C@@H]4CCCN(C)C4=O)c3)ncc2c(N)n1 [Compound 251, (3R)-3-(4-[[8-amino-6-(4-methylpyridin-3-yl)-2,7-naphthyridin-3-yl]amino]-1H-pyrazol-1-yl)-1-methylpiperidin-2-one]
0.569 nM | Cc1ccncc1-c1cc2cc(Nc3cnn([C@H]4CCCN(C)C4=O)c3)ncc2c(N)n1 [Compound 252, (3S)-3-(4-[[8-amino-6-(4-methylpyridin-3-yl)-2,7-naphthyridin-3-yl]amino]-1H-pyrazol-1-yl)-1-methylpiperidin-2-one]
0.0892 nM | Nc1nc(-c2cnccc2CCO)cc2cc(NC(=O)[C@@H]3C[C@H]3c3cccnc3)ncc12 [Compound 253, (1R,2R)—N-[8-amino-6-[4-(2-hydroxyethyl)pyridin-3-yl]-2,7-naphthyridin-3-yl]-2-(pyridin-3-yl)cyclopropane-1-carboxamide]
4.55 nM | Nc1nc(-c2cnccc2CCO)cc2cc(NC(=O)[C@H]3C[C@@H]3c3cccnc3)ncc12 [Compound 254, (1S,2S)—N-[8-amino-6-[4-(2-hydroxyethyl)pyridin-3-yl]-2,7-naphthyridin-3-yl]-2-(pyridin-3-yl)cyclopropane-1-carboxamide]
33.9 nM | Cc1ccncc1-c1cc2cc(NC(=O)[C@H]3[C@@H]4CN(C5COC5)C[C@@H]43)ncc2c(N)n1 [Compound 255, (exo)-N-[8-amino-6-(4-methylpyridin-3-yl)-2,7-naphthyridin-3-yl]-3-(oxetan-3-yl)-3-azabicyclo[3.1.0]hexane-6-carboxamide]

Ki | Compound
1.01 nM | Cc1ccncc1-c1cc2cc(Nc3cnn(CC(F)F)c3)ncc2c(N)n1 [Compound 257, 6-N-[1-(2,2-difluoroethyl)-1H-pyrazol-4-yl]-3-(4-methylpyridin-3-yl)-2,7-naphthyridine-1,6-diamine]
0.695 nM | Cc1ccncc1-c1nc(N)c2cnc(NC(=O)C3CC3)cc2c1-c1cn[nH]c1 [Compound 258, N-(8-amino-6-(4-methylpyridin-3-yl)-5-(1H-pyrazol-4-yl)-2,7-naphthyridin-3-yl)cyclopropanecarboxamide]
146 nM | Cc1ccncc1-c1cc2cc(Nc3cc(C4CC4)n(CCO)n3)ncc2c(N)n1 [Compound 259, 2-(3-[[8-amino-6-(4-methylpyridin-3-yl)-2,7-naphthyridin-3-yl]amino]-5-cyclopropyl-1H-pyrazol-1-yl)ethan-1-ol]
0.73 nM | Cc1ccncc1-c1cc2cc(Nc3cnn(CC(C)(C)O)c3)ncc2c(N)n1 [Compound 260, 1-(4-[[8-amino-6-(4-methylpyridin-3-yl)-2,7-naphthyridin-3-yl]amino]-1H-pyrazol-1-yl)-2-methylpropan-2-ol]
36.7 nM | Cc1cc(Nc2cc3cc(-c4cnccc4C)nc(N)c3cn2)n(CCO)n1 [Compound 261, 2-(5-[[8-amino-6-(4-methylpyridin-3-yl)-2,7-naphthyridin-3-yl]amino]-3-methyl-1H-pyrazol-1-yl)ethan-1-ol]
0.021 nM | CNC(=O)c1cc(Nc2cc3cc(-c4cnccc4C)nc(N)c3cn2)nn1C [Compound 263, 3-[[8-Amino-6-(4-methylpyridin-3-yl)-2,7-naphthyridin-3-yl]amino]-N,1-dimethyl-1H-pyrazole-5-carboxamide]
0.134 nM | Cc1ccncc1-c1cc2cc(Nc3ccc(CS(N)(=O)=O)cc3)ncc2c(N)n1 [Compound 264, (4-[[8-Amino-6-(4-methylpyridin-3-yl)-2,7-naphthyridin-3-yl]amino]phenyl)methanesulfonamide]
0.249 nM | Cc1ccncc1-c1cc2cc(Nc3ccc(N4CCNCC4=O)cc3)ncc2c(N)n1 [Compound 265, 1-(4-[[8-amino-6-(4-methylpyridin-3-yl)-2,7-naphthyridin-3-yl]amino]phenyl)piperazin-2-one]
0.118 nM | Cc1ccncc1-c1cc2cc(Nc3cnn(C(C)(C)CO)c3)ncc2c(N)n1 [Compound 266, 2-(4-[[8-amino-6-(4-methylpyridin-3-yl)-2,7-naphthyridin-3-yl]amino]-1H-pyrazol-1-yl)-2-methylpropan-1-ol]
2.3 nM | Cc1ccncc1-c1nc(N)c2cnc(NC(=O)[C@@H]3C[C@H]3CC#N)cc2c1Cl [Compound 269, (1R,2S)—N-[8-amino-5-chloro-6-(4-methylpyridin-3-yl)-2,7-naphthyridin-3-yl]-2-(cyanomethyl)cyclopropane-1-carboxamide]
0.116 nM | Cc1ccncc1-c1nc(N)c2cnc(NC(=O)[C@H]3C[C@@H]3CC#N)cc2c1Cl [Compound 270, (1S,2R)—N-[8-amino-5-chloro-6-(4-methylpyridin-3-yl)-2,7-naphthyridin-3-yl]-2-(cyanomethyl)cyclopropane-1-carboxamide]
0.139 nM | CCc1c(-c2cnccc2C)nc(N)c2cnc(NC(=O)[C@@H]3C[C@H]3CC#N)cc12 [Compound 272, (1R,2S)—N-[8-amino-5-ethyl-6-(4-methylpyridin-3-yl)-2,7-naphthyridin-3-yl]-2-(cyanomethyl)cyclopropane-1-carboxamide]
0.297 nM | Cc1ccncc1-c1cc2cc(Nc3cnn([C@@H](C)C#N)c3)ncc2c(N)n1 [Compound 274, (S)-2-(4-(8-amino-6-(4-methylpyridin-3-yl)-2,7-naphthyridin-3-ylamino)-1H-pyrazol-1-yl)propanenitrile]
1.82 nM | Cc1ccc(O)cc1-c1cc2cc(NC(=O)[C@H]3C[C@@H]3c3cnn(C)c3)ncc2c(N)n1 [Compound 286, (1S,2S)—N-[8-amino-6-(5-hydroxy-2-methylphenyl)-2,7-naphthyridin-3-yl]-2-(1-methyl-1H-pyrazol-4-yl)cyclopropane-1-carboxamide]
0.078 nM | Cc1ccc(O)cc1-c1cc2cc(NC(=O)[C@@H]3C[C@H]3c3cnn(C)c3)ncc2c(N)n1 [Compound 287, (1R,2R)—N-[8-amino-6-(5-hydroxy-2-methylphenyl)-2,7-naphthyridin-3-yl]-2-(1-methyl-1H-pyrazol-4-yl)cyclopropane-1-carboxamide]
6.19 nM | COc1ccc(C)c(-c2cc3cc(NC(=O)[C@H]4C[C@@H]4c4cnn(C)c4)ncc3c(N)n2)c1 [Compound 288, (1S,2S)—N-[8-amino-6-(5-methoxy-2-methylphenyl)-2,7-naphthyridin-3-yl]-2-(1-methyl-1H-pyrazol-4-yl)cyclopropane-1-carboxamide]
